Source: publication PMC9120017, “Inhibition mechanism of the chloride channel TMEM16A by the pore blocker 1PBC” (Nature Communications, 2022)
Where two headings read alike, the source gives them in different places.

Target: T1, wild-type mouse TMEM16A (Mus musculus, UniProt Q8BHY3)
T1 construct: expressed in transfected cells; host or cells: HEK293T
T1 sequence (Q8BHY3 1-960): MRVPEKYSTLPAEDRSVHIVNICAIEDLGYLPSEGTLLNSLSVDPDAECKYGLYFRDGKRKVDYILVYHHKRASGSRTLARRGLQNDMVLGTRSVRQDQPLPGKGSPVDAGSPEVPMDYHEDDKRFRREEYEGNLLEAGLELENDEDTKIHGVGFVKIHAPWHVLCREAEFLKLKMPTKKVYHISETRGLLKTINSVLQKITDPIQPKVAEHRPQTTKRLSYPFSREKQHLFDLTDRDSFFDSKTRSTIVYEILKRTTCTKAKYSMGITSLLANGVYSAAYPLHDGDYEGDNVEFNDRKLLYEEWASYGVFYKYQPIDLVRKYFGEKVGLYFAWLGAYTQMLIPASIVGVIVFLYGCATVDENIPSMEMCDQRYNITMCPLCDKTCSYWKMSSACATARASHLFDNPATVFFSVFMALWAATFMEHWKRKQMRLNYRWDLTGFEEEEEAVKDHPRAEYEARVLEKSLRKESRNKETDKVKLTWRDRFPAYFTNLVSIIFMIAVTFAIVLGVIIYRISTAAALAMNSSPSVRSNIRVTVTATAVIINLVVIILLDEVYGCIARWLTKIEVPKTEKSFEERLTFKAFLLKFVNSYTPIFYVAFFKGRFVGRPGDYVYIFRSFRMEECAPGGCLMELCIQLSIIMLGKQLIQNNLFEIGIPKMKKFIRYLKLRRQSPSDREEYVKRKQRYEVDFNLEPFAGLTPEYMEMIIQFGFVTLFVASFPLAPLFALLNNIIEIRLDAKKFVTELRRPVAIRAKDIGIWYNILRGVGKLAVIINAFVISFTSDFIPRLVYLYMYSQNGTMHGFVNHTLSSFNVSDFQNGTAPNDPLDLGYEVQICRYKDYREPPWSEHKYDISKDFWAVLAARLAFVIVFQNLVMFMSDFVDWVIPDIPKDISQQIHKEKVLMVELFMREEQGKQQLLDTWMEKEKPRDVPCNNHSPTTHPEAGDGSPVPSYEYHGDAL
Assay: Inside-out patch recording of 1PBC block, wild-type TMEM16A
Format: cell-based
Settings: for remaining activity at 1 µM / remaining activity at 3 µM / remaining activity at 10 µM: read-out: I/Imax
Method: HEK293T cells (ATCC CRL-1573) were maintained in Dulbecco’s modified Eagle’s medium (DMEM; Sigma-Aldrich) supplemented with 10 U ml^−1 penicillin, 0.1 mg ml^−1 streptomycin (Sigma-Aldrich), 2 mM L-glutamine (Sigma-Aldrich), and 10% FBS (Sigma-Aldrich) in a humidified atmosphere containing 5% CO2 at 37 °C. HEK293S GnTI^− cells (ATCC CRL-3022) were maintained in HyClone HyCell TransFx-H medium (GE Healthcare) supplemented with 10 U ml^−1 penicillin, 0.1 mg ml^−1 streptomycin, 4 mM L-glutamine, 0.15% poloxamer 188 (Sigma-Aldrich), and 1% FBS in an atmosphere containing 5% CO2 at 185 rpm at 37 °C. The ac splice variant of mouse TMEM16A (UniProt ID: Q8BHY3), mouse TMEM16B (UniProt ID: Q8CFW1), or mouse TMEM16F (UniProt ID: Q6P9J9) bearing a 3C cleavage site, a Venus YFP, a Myc tag, and a Streptavidin-binding peptide (SBP) downstream of the open reading frame in a modified pcDNA3.1 vector (Invitrogen) were used as described previously[21],[31]. Mutations were introduced using a modified QuikChange method[58] and were verified by sequencing.
HEK293T cells were transfected with 3–4 μg DNA per 6 cm Petri dish using the calcium phosphate co-precipitation method and were used within 24–96 h after transfection. Recordings were performed on inside-out patches excised from HEK293T cells expressing the construct of interest. Patch pipettes were pulled from borosilicate glass capillaries (O.D. 1.5 mm, I.D. 0.86 mm, Sutter Instrument) and were fire-polished with a microforge (Narishige) before use. Pipette resistance was typically 3–8 MΩ when filled with the recording solutions detailed below. Seal resistance was typically 4 GΩ or higher. Voltage-clamp recordings were made using Axopatch 200B, Digidata 1550, and Clampex 10.7 (Molecular Devices). Analog signals were filtered with the in-built 4-pole Bessel filter at 10 kHz and were digitized at 20 kHz. Solution exchange was achieved using a gravity-fed system through a theta glass pipette mounted on an ultra-fast piezo-driven stepper (Siskiyou). […] All recordings were performed at 20 °C.
A symmetrical ionic condition was used throughout. Stock solution with Ca^2+-EGTA contained 150 mM NaCl, 5.99 mM Ca(OH)2, 5 mM EGTA, and 10 mM HEPES at pH 7.40. Stock solution with EGTA contained 150 mM NaCl, 5 mM EGTA, and 10 mM HEPES at pH 7.40. Free Ca^2+ concentrations were adjusted by mixing the stock solutions at the required ratios calculated using the WEBMAXC program (http://web.stanford.edu/~cpatton/webmaxcS.htm). Patch pipettes were filled with the stock solution with Ca^2+-EGTA, which has a free Ca^2+ concentration of 1 mM. 1PBC (ChemBridge) stock was reconstituted in anhydrous DMSO (Sigma-Aldrich) at 100 mM and stored at −20 °C. Working solutions with 1PBC were prepared by serial dilution. Unless otherwise stated, experiments were performed at a saturating Ca^2+ concentration as shown in Supplementary Table 1 and the primary data were corrected for current rundown as described previously[21],[25].
Concentration-response relations, obtained from the ratio of the I-V plots before and after the application of the blocker, were fitted to the Hill equation,1 I/Imax=1/1+IC50/[blocker]^h where I/Imax is the normalized current responses, IC50 defines the concentration at which inhibition is at its half-maximum, and h is the Hill coefficient.

## N#Cc1c(C(F)(F)F)cc(O)n2c1nc1ccccc12 [1PBC]
  Hill coefficient for 1PBC block: 1
0 mV, 2 µM Ca2+
  IC50: 4.4 µM
0.4 μM Ca2+, 80 mV, empirical Hill fit of data scaled to open probability
  IC50: 3.2 µM
0.8 μM Ca2+, 80 mV, empirical Hill fit of data scaled to open probability
  IC50: 2.13 µM
1 µM 1PBC, 0 mV, 2 µM Ca2+
  Steady-state current (normalized): 0.001783
  remaining activity at 1 µM: 73%
1 µM 1PBC, 400 nM Ca2+, 80 mV
  I/Imax scaled to open probability: 0.3757
1 µM 1PBC, 800 nM Ca2+, 80 mV
  I/Imax scaled to open probability: 0.4419
1 µM 1PBC, 2 µM Ca2+, 80 mV
  I/Imax scaled to open probability: 0.5218
1 µM 1PBC, 20 mV, 2 µM Ca2+
  Steady-state current (normalized): 0.134
  remaining activity at 1 µM: 68.9%
1 µM 1PBC, 40 mV, 2 µM Ca2+
  Steady-state current (normalized): 0.2463
  remaining activity at 1 µM: 65.3%
1 µM 1PBC, 60 mV, 2 µM Ca2+
  Steady-state current (normalized): 0.3454
  remaining activity at 1 µM: 62.6%
1 µM 1PBC, 80 mV, 2 µM Ca2+
  Steady-state current (normalized): 0.4256
  remaining activity at 1 µM: 60.1%
1 µM 1PBC, 100 mV, 2 µM Ca2+
  Steady-state current (normalized): 0.5103
  remaining activity at 1 µM: 60.1%
1 µM 1PBC, 120 mV, 2 µM Ca2+
  Steady-state current (normalized): 0.5951
  remaining activity at 1 µM: 61.1%
1 µM 1PBC, 140 mV, 2 µM Ca2+
  Steady-state current (normalized): 0.7035
  remaining activity at 1 µM: 64.7%
1 µM 1PBC, -20 mV, 2 µM Ca2+
  Steady-state current (normalized): -0.1486
  remaining activity at 1 µM: 77.2%
1 µM 1PBC, -40 mV, 2 µM Ca2+
  Steady-state current (normalized): -0.3126
  remaining activity at 1 µM: 80.5%
1 µM 1PBC, -60 mV, 2 µM Ca2+
  Steady-state current (normalized): -0.4807
  remaining activity at 1 µM: 83%
1 µM 1PBC, -80 mV, 2 µM Ca2+
  Steady-state current (normalized): -0.661
  remaining activity at 1 µM: 86.1%
1 µM 1PBC, -100 mV, 2 µM Ca2+
  Steady-state current (normalized): -0.836
  remaining activity at 1 µM: 88%
1 µM 1PBC, -120 mV, 2 µM Ca2+
  Steady-state current (normalized): -1.004
  remaining activity at 1 µM: 89.7%
1 µM 1PBC, -140 mV, 2 µM Ca2+
  Steady-state current (normalized): -1.145
  remaining activity at 1 µM: 89.1%
2 μM Ca2+, 80 mV, empirical Hill fit of data scaled to open probability
  IC50: 1.94 µM
3 µM 1PBC, 0 mV, 2 µM Ca2+
  Steady-state current (normalized): 0.001316
  remaining activity at 3 µM: 53.9%
3 µM 1PBC, 400 nM Ca2+, 80 mV
  I/Imax scaled to open probability: 0.2553
3 µM 1PBC, 800 nM Ca2+, 80 mV
  I/Imax scaled to open probability: 0.2864
3 µM 1PBC, 2 µM Ca2+, 80 mV
  I/Imax scaled to open probability: 0.3306
3 µM 1PBC, 20 mV, 2 µM Ca2+
  Steady-state current (normalized): 0.0952
  remaining activity at 3 µM: 48.9%
3 µM 1PBC, 40 mV, 2 µM Ca2+
  Steady-state current (normalized): 0.1678
  remaining activity at 3 µM: 44.5%
3 µM 1PBC, 60 mV, 2 µM Ca2+
  Steady-state current (normalized): 0.2233
  remaining activity at 3 µM: 40.5%
3 µM 1PBC, 80 mV, 2 µM Ca2+
  Steady-state current (normalized): 0.2697
  remaining activity at 3 µM: 38.1%
3 µM 1PBC, 100 mV, 2 µM Ca2+
  Steady-state current (normalized): 0.3173
  remaining activity at 3 µM: 37.3%
3 µM 1PBC, 120 mV, 2 µM Ca2+
  Steady-state current (normalized): 0.3753
  remaining activity at 3 µM: 38.6%
3 µM 1PBC, 140 mV, 2 µM Ca2+
  Steady-state current (normalized): 0.4543
  remaining activity at 3 µM: 41.8%
3 µM 1PBC, -20 mV, 2 µM Ca2+
  Steady-state current (normalized): -0.1133
  remaining activity at 3 µM: 58.9%
3 µM 1PBC, -40 mV, 2 µM Ca2+
  Steady-state current (normalized): -0.2482
  remaining activity at 3 µM: 63.9%
3 µM 1PBC, -60 mV, 2 µM Ca2+
  Steady-state current (normalized): -0.3977
  remaining activity at 3 µM: 68.6%
3 µM 1PBC, -80 mV, 2 µM Ca2+
  Steady-state current (normalized): -0.557
  remaining activity at 3 µM: 72.6%
3 µM 1PBC, -100 mV, 2 µM Ca2+
  Steady-state current (normalized): -0.718
  remaining activity at 3 µM: 75.6%
3 µM 1PBC, -120 mV, 2 µM Ca2+
  Steady-state current (normalized): -0.8735
  remaining activity at 3 µM: 78.1%
3 µM 1PBC, -140 mV, 2 µM Ca2+
  Steady-state current (normalized): -1.031
  remaining activity at 3 µM: 80.3%
10 µM 1PBC, 0 mV, 2 µM Ca2+
  Steady-state current (normalized): 0.0007397
  remaining activity at 10 µM: 30.3%
10 µM 1PBC, 400 nM Ca2+, 80 mV
  I/Imax scaled to open probability: 0.1226
10 µM 1PBC, 800 nM Ca2+, 80 mV
  I/Imax scaled to open probability: 0.1094
10 µM 1PBC, 2 µM Ca2+, 80 mV
  I/Imax scaled to open probability: 0.1474
10 µM 1PBC, 20 mV, 2 µM Ca2+
  Steady-state current (normalized): 0.04925
  remaining activity at 10 µM: 25.3%
10 µM 1PBC, 40 mV, 2 µM Ca2+
  Steady-state current (normalized): 0.08188
  remaining activity at 10 µM: 21.7%
10 µM 1PBC, 60 mV, 2 µM Ca2+
  Steady-state current (normalized): 0.1024
  remaining activity at 10 µM: 18.6%
10 µM 1PBC, 80 mV, 2 µM Ca2+
  Steady-state current (normalized): 0.1202
  remaining activity at 10 µM: 17%
10 µM 1PBC, 100 mV, 2 µM Ca2+
  Steady-state current (normalized): 0.1383
  remaining activity at 10 µM: 16.3%
10 µM 1PBC, 120 mV, 2 µM Ca2+
  Steady-state current (normalized): 0.1588
  remaining activity at 10 µM: 16.3%
10 µM 1PBC, 140 mV, 2 µM Ca2+
  Steady-state current (normalized): 0.1862
  remaining activity at 10 µM: 17.1%
10 µM 1PBC, -20 mV, 2 µM Ca2+
  Steady-state current (normalized): -0.06795
  remaining activity at 10 µM: 35.3%
10 µM 1PBC, -40 mV, 2 µM Ca2+
  Steady-state current (normalized): -0.1586
  remaining activity at 10 µM: 40.9%
